Assay results taken from the NIST ThermoML archive (doi:10.1016/j.jct.2017.08.004).
± gives the expanded uncertainty stated by the source.

Details: 305 K; 101.33 kPa; Crystal; Small sample (50 mg) DSC

Structure (SMILES)	molar entropy [J/K/mol]
OC[C@@H](O)[C@@H](O)[C@H](O)[C@H](O)CO [D-mannitol]	232.31 ± 56
OC[C@H](O)C(O)[C@@H](O)CO [L-(-)-arabitol]	206.64 ± 62

Results, then the molecule that gave them:

molar entropy [J/K/mol]	Structure (SMILES)
203.13 ± 43	O[C@H]1[C@H](O)[C@@H](O)[C@H](O)[C@@H](O)[C@H]1O [cis-1,2,3,5-trans-4,6-cyclohexanehexol]
169.22 ± 31	OC[C@@H](O)[C@@H](O)CO [meso-1,2,3,4-butanetetrol]

Same assay, conditions: 310 K; 101.33 kPa; Crystal; Small sample (50 mg) DSC

Structure (SMILES)	molar entropy [J/K/mol]
OC[C@@H](O)C(O)[C@H](O)CO [D-arabitol]	207.75 ± 25
OC[C@@H](O)[C@@H](O)[C@H](O)[C@H](O)CO [D-mannitol]	236.19 ± 57
OC[C@H](O)C(O)[C@@H](O)CO [L-(-)-arabitol]	210.13 ± 63

Other lines, results leading:

molar entropy [J/K/mol]	Structure (SMILES)
206.81 ± 44	O[C@H]1[C@H](O)[C@@H](O)[C@H](O)[C@@H](O)[C@H]1O [cis-1,2,3,5-trans-4,6-cyclohexanehexol]
172 ± 31	OC[C@@H](O)[C@@H](O)CO [meso-1,2,3,4-butanetetrol]

Same assay, conditions: 315 K; 101.33 kPa; Crystal; Small sample (50 mg) DSC

Structure (SMILES)	molar entropy [J/K/mol]
OC[C@@H](O)C(O)[C@H](O)CO [D-arabitol]	211.16 ± 26
OC[C@@H](O)[C@@H](O)[C@H](O)[C@H](O)CO [D-mannitol]	240.08 ± 58
OC[C@H](O)C(O)[C@@H](O)CO [L-(-)-arabitol]	213.64 ± 64

Second part, the molecule after the results:

molar entropy [J/K/mol]	Structure (SMILES)
210.5 ± 44	O[C@H]1[C@H](O)[C@@H](O)[C@H](O)[C@@H](O)[C@H]1O [cis-1,2,3,5-trans-4,6-cyclohexanehexol]
174.78 ± 32	OC[C@@H](O)[C@@H](O)CO [meso-1,2,3,4-butanetetrol]

Same assay, conditions: 320 K; 101.33 kPa; Crystal; Small sample (50 mg) DSC

Structure (SMILES)	molar entropy [J/K/mol]
OC[C@@H](O)C(O)[C@H](O)CO [D-arabitol]	214.58 ± 26
OC[C@@H](O)[C@@H](O)[C@H](O)[C@H](O)CO [D-mannitol]	243.99 ± 59
OC[C@H](O)C(O)[C@@H](O)CO [L-(-)-arabitol]	217.18 ± 65

Continued, values first:

molar entropy [J/K/mol]	Structure (SMILES)
214.2 ± 45	O[C@H]1[C@H](O)[C@@H](O)[C@H](O)[C@@H](O)[C@H]1O [cis-1,2,3,5-trans-4,6-cyclohexanehexol]
177.57 ± 32	OC[C@@H](O)[C@@H](O)CO [meso-1,2,3,4-butanetetrol]

Same assay, conditions: 325 K; 101.33 kPa; Crystal; Small sample (50 mg) DSC

Structure (SMILES)	molar entropy [J/K/mol]
OC[C@@H](O)C(O)[C@H](O)CO [D-arabitol]	218.03 ± 27
OC[C@@H](O)[C@@H](O)[C@H](O)[C@H](O)CO [D-mannitol]	247.9 ± 60
OC[C@H](O)C(O)[C@@H](O)CO [L-(-)-arabitol]	220.73 ± 66

The remaining lines, values ahead:

molar entropy [J/K/mol]	Structure (SMILES)
217.91 ± 46	O[C@H]1[C@H](O)[C@@H](O)[C@H](O)[C@@H](O)[C@H]1O [cis-1,2,3,5-trans-4,6-cyclohexanehexol]
180.36 ± 33	OC[C@@H](O)[C@@H](O)CO [meso-1,2,3,4-butanetetrol]

Same assay, conditions: 330 K; 101.33 kPa; Crystal; Small sample (50 mg) DSC

Structure (SMILES)	molar entropy [J/K/mol]
OC[C@@H](O)C(O)[C@H](O)CO [D-arabitol]	221.5 ± 27
OC[C@@H](O)[C@@H](O)[C@H](O)[C@H](O)CO [D-mannitol]	251.82 ± 61
OC[C@H](O)C(O)[C@@H](O)CO [L-(-)-arabitol]	224.32 ± 67

Further lines, results first:

molar entropy [J/K/mol]	Structure (SMILES)
221.64 ± 47	O[C@H]1[C@H](O)[C@@H](O)[C@H](O)[C@@H](O)[C@H]1O [cis-1,2,3,5-trans-4,6-cyclohexanehexol]
183.15 ± 33	OC[C@@H](O)[C@@H](O)CO [meso-1,2,3,4-butanetetrol]

Same assay, conditions: 335 K; 101.33 kPa; Crystal; Small sample (50 mg) DSC

Structure (SMILES)	molar entropy [J/K/mol]
OC[C@@H](O)C(O)[C@H](O)CO [D-arabitol]	224.99 ± 27
OC[C@@H](O)[C@@H](O)[C@H](O)[C@H](O)CO [D-mannitol]	255.74 ± 62
OC[C@H](O)C(O)[C@@H](O)CO [L-(-)-arabitol]	227.93 ± 69

More lines, now with the values ahead:

molar entropy [J/K/mol]	Structure (SMILES)
225.37 ± 48	O[C@H]1[C@H](O)[C@@H](O)[C@H](O)[C@@H](O)[C@H]1O [cis-1,2,3,5-trans-4,6-cyclohexanehexol]
185.94 ± 34	OC[C@@H](O)[C@@H](O)CO [meso-1,2,3,4-butanetetrol]

Same assay, conditions: 340 K; 101.33 kPa; Crystal; Small sample (50 mg) DSC

Structure (SMILES)	molar entropy [J/K/mol]
OC[C@@H](O)C(O)[C@H](O)CO [D-arabitol]	228.51 ± 28
OC[C@@H](O)[C@@H](O)[C@H](O)[C@H](O)CO [D-mannitol]	259.67 ± 63
OC[C@H](O)C(O)[C@@H](O)CO [L-(-)-arabitol]	231.6 ± 70

Next, values leading:

molar entropy [J/K/mol]	Structure (SMILES)
229.11 ± 48	O[C@H]1[C@H](O)[C@@H](O)[C@H](O)[C@@H](O)[C@H]1O [cis-1,2,3,5-trans-4,6-cyclohexanehexol]
188.74 ± 34	OC[C@@H](O)[C@@H](O)CO [meso-1,2,3,4-butanetetrol]

Same assay, conditions: 345 K; 101.33 kPa; Crystal; Small sample (50 mg) DSC

Structure (SMILES)	molar entropy [J/K/mol]
OC[C@@H](O)C(O)[C@H](O)CO [D-arabitol]	232.07 ± 28
OC[C@@H](O)[C@@H](O)[C@H](O)[C@H](O)CO [D-mannitol]	263.61 ± 64
OC[C@H](O)C(O)[C@@H](O)CO [L-(-)-arabitol]	235.34 ± 71

Now from value to molecule:

molar entropy [J/K/mol]	Structure (SMILES)
232.86 ± 49	O[C@H]1[C@H](O)[C@@H](O)[C@H](O)[C@@H](O)[C@H]1O [cis-1,2,3,5-trans-4,6-cyclohexanehexol]
191.53 ± 35	OC[C@@H](O)[C@@H](O)CO [meso-1,2,3,4-butanetetrol]

Same assay, conditions: 350 K; 101.33 kPa; Crystal; Small sample (50 mg) DSC

Structure (SMILES)	molar entropy [J/K/mol]
OC[C@@H](O)C(O)[C@H](O)CO [D-arabitol]	235.68 ± 29
OC[C@@H](O)[C@@H](O)[C@H](O)[C@H](O)CO [D-mannitol]	267.55 ± 64
OC[C@H](O)C(O)[C@@H](O)CO [L-(-)-arabitol]	239.2 ± 72

More lines, now with the values ahead:

molar entropy [J/K/mol]	Structure (SMILES)
236.62 ± 50	O[C@H]1[C@H](O)[C@@H](O)[C@H](O)[C@@H](O)[C@H]1O [cis-1,2,3,5-trans-4,6-cyclohexanehexol]
194.32 ± 35	OC[C@@H](O)[C@@H](O)CO [meso-1,2,3,4-butanetetrol]

Same assay, conditions: 355 K; 101.33 kPa; Crystal; Small sample (50 mg) DSC

molar entropy [J/K/mol]	Structure (SMILES)
239.39 ± 29	OC[C@@H](O)C(O)[C@H](O)CO [D-arabitol]
